The target in assay [1] is human RORγt ligand binding domain (RORγt LBD) (Homo sapiens (Human), UniProt P51449). Nature of the assay: RORγt ThermoFluor assay. The text has this:
ThermoFluor® is a fluorescence based assay that estimates ligand binding affinities by measuring the effect of a ligand on protein thermal stability (Pantoliano, M. W., Petrella, E. C., Kwasnoski, J. D., Lobanov, V. S., Myslik, J., Graf, E., Carver, T., Asel, E., Springer, B. A., Lane, P., and Salemme, F. R. (2001) High-density miniaturized thermal shift assays as a general strategy for drug discovery. J Biomol Screen 6, 429-40, and Matulis, D., Kranz, J. K., Salemme, F. R., and Todd, M. J. (2005) Thermodynamic stability of carbonic anhydrase: measurements of binding affinity and stoichiometry using ThermoFluor. Biochemistry 44, 5258-66). This approach is applicable to a wide variety of systems, and rigorous in theoretical interpretation through quantitation of equilibrium binding constants (KD).
The shift in the melting point described as a ΔTm is proportional to the concentration and affinity of the ligand. The compound potency may be compared as a rank order of either values at a single compound concentration or in terms of KD values, estimated from concentration response curves.
RORγt ThermoFluor® Assay Construct
For the RORγt construct used in the ThermoFluor® assay, numbering for the nucleotide sequences was based on the reference sequence for human RORγt, transcript variant 2, NCBI Accession: NM 001001523.1 (SEQ ID NO:1). Nucleotides 850-1635 (SEQ ID NO:2) coding for the wild type human RORγt ligand binding domain (RORγt LBD) were cloned into the pHIS1 vector, a modified pET E. coli expression vector (Accelagen, San Diego), containing an in-frame N-terminal His-tag and a TurboTEV protease cleavage site (ENLYFQG, SEQ ID NO:3) upstream of the cloned insert sequence. The amino acid sequence for the RORγt construct used in the Thermofluor® assay is shown as SEQ ID NO:4.
ThermoFluor® experiments were carried out using instruments owned by Janssen Research and Development, L.L.C. through its acquisition of 3-Dimensional Pharmaceuticals, Inc. 1,8-ANS (Invitrogen) was used as a fluorescent dye. Protein and compound solutions are dispensed into black 384-well polypropylene PCR microplates (Abgene) and overlayed with silicone oil (1 μL, Fluka, type DC 200) to prevent evaporation.
Bar-coded assay plates are robotically loaded onto a thermostatically controlled PCR-type thermal block and then heated at a typical ramp-rate of 1° C./min for all experiments. Fluorescence was measured by continuous illumination with UV light (Hamamatsu LC6) supplied via fiber optic and filtered through a band-pass filter (380-400 nm; >6 OD cutoff). Fluorescence emission of the entire 384-well plate was detected by measuring light intensity using a CCD camera (Sensys, Roper Scientific) filtered to detect 500±25 nm, resulting in simultaneous and independent readings of all 384 wells. Images were collected at each temperature, and the sum of the pixel intensity in a given area of the assay plate was recorded versus temperature. Reference wells contained RORγt without compounds, and the assay conditions were as follows:
Project compounds were arranged in a pre-dosed mother plate (Greiner Bio-one) wherein compounds are serially diluted in 100% DMSO by 1:2 from a high concentration of 10 mM over 12 columns within a series (column 12 is a reference well containing DMSO, no compound). The compounds were robotically dispensed directly into assay plates (1×=46 nL) using a Hummingbird capillary liquid handling instrument (Digilab). Following compound dispense, protein and dye in buffer was added to achieve the final assay volume of 3 μL, followed by 1 μL of silicone oil.
The binding affinity was estimated as described previously (Matulis, D., Kranz, J. K., Salemme, F. R., and Todd, M. J. (2005) Thermodynamic stability of carbonic anhydrase: measurements of binding affinity and stoichiometry using ThermoFluor®. Biochemistry 44, 5258-66) using the following thermodynamic parameters of protein unfolding:
Reference RORγt Tm: 47.8° C.
A general note: In DSF a fluorescence change marks the thermal transition of the protein.

Assay [2] deals with full-length human RORγt (GAL4-DBD-RORγt fusion) in HEK293T cells (Homo sapiens (Human), UniProt P51449). The experiment in a line: RORγt (full-length human) reporter assay, conditions A or B. The assay is classed as cell-based. Particulars: for RORγt (FL) Reporter Assay A or B, % inhibition / inhibition at 3 µM: 3 μM compound concentration (footnote *); for IC50: HEK293T cells, read-out: RORγt (FL) Reporter Assay A or B, IC50; for inhibition at 3 µM / inhibition at 1 µM: HEK-293T, read-out: RORγt (FL) Reporter Assay A or B, % inhibition; for inhibition at 1 µM: 1 μM compound concentration (footnote ***). As for the experimental part:
RORγt (Full-Length Human) Reporter Assay:
(§1) HEK293T cells were plated at 35,000 per well in 96-well plate in medium of DMEM with 10% FBS. […] After overnight (16 to 20 hours) incubation, media were removed and cells were lysed with 50 μL Glo Lysis Buffer (Promega) for 10-15 minutes followed by 10 minute incubation with 50 μL Dual Glo reagent (Promega) at room temperature. Firefly luciferase luminescence was measured using a BMG Pherastar plate reader. To each well, 50 μL Stop and Glo reagent was added and incubated for 10 minutes at room temperature. Renilla luminescence was measured using a BMG Pherastar plate reader. To calculate the effect of compounds on RORγt activity, firefly values were normalized against values of DMSO only and values of reference compound at saturating concentration, then further normalized against Renilla signals. IC50s were generated by plotting final Renilla normalized data against compound concentration and percent inhibition was calculated against DMSO control.
as §1, with “at 8750 cells” for “at 35,000”, “in 384-well” for “in 96-well”, “with 20” for “with 50”, “well, 20” for “well, 50”

We go through eleven molecules from patent US11034658B2, “Pyridinyl pyrazoles as modulators of RORγT” (Janssen Pharmaceutica NV, priority 2018, dated 2021).

For orientation: Kd means the constant that tells how readily two partners part at equilibrium. A higher Kd goes with weaker binding. A word on the IC50: it is the point on the concentration scale where inhibition reaches its midpoint. By inhibition is commonly meant the change of the read-out against control, counted positive when it falls.

Marks after values point to notes of the source that are not given here.

human RORγt ligand binding domain (RORγt LBD), sequence (P51449 other isoform, or with tags, fused parts or gaps): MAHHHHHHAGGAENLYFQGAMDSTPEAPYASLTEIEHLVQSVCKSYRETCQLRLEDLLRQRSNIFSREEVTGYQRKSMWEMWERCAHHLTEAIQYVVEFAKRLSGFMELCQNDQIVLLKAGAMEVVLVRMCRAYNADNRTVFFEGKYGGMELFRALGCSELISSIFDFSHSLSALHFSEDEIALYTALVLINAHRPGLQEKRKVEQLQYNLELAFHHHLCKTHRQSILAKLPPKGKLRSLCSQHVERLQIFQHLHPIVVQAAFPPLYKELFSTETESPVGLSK
full-length human RORγt (GAL4-DBD-RORγt fusion) in HEK293T cells, sequence (P51449 other isoform, or with tags, fused parts or gaps): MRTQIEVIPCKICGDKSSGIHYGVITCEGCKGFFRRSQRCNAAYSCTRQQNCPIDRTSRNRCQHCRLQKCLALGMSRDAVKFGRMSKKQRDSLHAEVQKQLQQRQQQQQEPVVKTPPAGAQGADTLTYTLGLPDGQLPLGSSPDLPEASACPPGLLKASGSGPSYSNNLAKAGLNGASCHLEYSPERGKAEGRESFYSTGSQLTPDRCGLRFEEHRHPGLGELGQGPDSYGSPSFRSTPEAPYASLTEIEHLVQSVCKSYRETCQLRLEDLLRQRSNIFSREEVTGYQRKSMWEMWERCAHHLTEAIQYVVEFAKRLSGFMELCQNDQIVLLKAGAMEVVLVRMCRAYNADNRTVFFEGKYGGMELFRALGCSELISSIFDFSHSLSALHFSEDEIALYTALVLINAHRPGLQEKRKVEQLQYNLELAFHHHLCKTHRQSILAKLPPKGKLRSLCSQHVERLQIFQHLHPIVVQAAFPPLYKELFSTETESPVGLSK

In assay [1], `CCn1nc(C(=O)NC[C@H]2CC[C@H](S(=O)(=O)NC(=O)NC)CC2)c(Cl)c1-c1cnc(CC(C)(C)C(F)(F)F)cc1OC(F)F` [Example 6, 4-Chloro-5-(4-(difluoromethoxy)-6-(3,3,3-trifluoro-2,2-dimethylpropyl)pyridin-3-yl)-1-ethyl-N-(((1r,4r)-4-(N-(methylcarbamoyl)sulfamoyl)cyclohexyl)methyl)-1H-pyrazole-3-carboxamide] gave a Kd of 0.0019 µM. For the same molecule, in assay [2], the “RORγt (FL) Reporter Assay A or B, % inhibition” value is on record as 87* % and the IC50 worked out at 0.27 µM.

On to `CCn1nc(C(=O)NC[C@H]2CC[C@H](S(=O)(=O)NC(N)=O)CC2)c(Cl)c1-c1cnc(CC(C)(C)C(F)(F)F)cc1OC(F)F` [Example 7, N-(((1r,4r)-4-(N-carbamoylsulfamoyl)cyclohexyl)methyl)-4-chloro-5-(4-(difluoromethoxy)-6-(3,3,3-trifluoro-2,2-dimethylpropyl)pyridin-3-yl)-1-ethyl-1H-pyrazole-3-carboxamide], for which the dissociation constant Kd in assay [1] was found to be 0.0029 µM. In assay [2], the “RORγt (FL) Reporter Assay A or B, % inhibition” value is recorded as 100* % and the IC50 was determined as 0.24 µM.

Molecule `CCn1nc(C(=O)NC[C@H]2CC[C@H](S(N)(=O)=O)CC2)c(Cl)c1-c1cnc(CC(C)(C)C(F)(F)F)cc1OC(F)F` [Example 11, 4-chloro-5-(4-(difluoromethoxy)-6-(3,3,3-trifluoro-2,2-dimethylpropyl)pyridin-3-yl)-1-ethyl-N-(((1r,4r)-4-sulfamoylcyclohexyl)methyl)-1H-pyrazole-3-carboxamide] showed a dissociation constant Kd in assay [1] of 0.0014 µM. In assay [2], the concentration for half-maximal inhibition (IC50) worked out at 0.023 µM and the inhibition at 3 µM turned out to be 108%.

For `CCn1nc(C(=O)NC[C@H]2CC[C@H](S(N)(=O)=O)CC2)c(C)c1-c1cnc(CC(C)(C)C(F)(F)F)cc1OC(F)F` [Example 12, 5-(4-(Difluoromethoxy)-6-(3,3,3-trifluoro-2,2-dimethylpropyl)pyridin-3-yl)-1-ethyl-4-methyl-N-(((1r,4r)-4-sulfamoylcyclohexyl)methyl)-1H-pyrazole-3-carboxamide], the dissociation constant Kd in assay [1] stood at 0.0043 µM. Moreover, in assay [2], the IC50 was determined as 0.029 µM and the inhibition at 3 µM came to 110%.

Molecule `CCn1nc(C(=O)NC[C@H]2CC[C@H](S(C)(=O)=O)CC2)c(Cl)c1-c1cnc(CC(C(F)(F)F)C(F)(F)F)cc1OC(F)F` [Example 21, 4-Chloro-5-(4-(difluoromethoxy)-6-(3,3,3-trifluoro-2-(trifluoromethyl)propyl)pyridin-3-yl)-1-ethyl-N-(((1r,4r)-4-(methylsulfonyl)cyclohexyl)methyl)-1H-pyrazole-3-carboxamide] returned a Kd in assay [1] of 0.0012 µM. In addition, in assay [2], the IC50 came to 0.02 µM and the inhibition at 1 µM came out at 120%.

`CCn1nc(C(=O)NC[C@]2(O)CC[C@@H](S(C)(=O)=O)CC2)c(Cl)c1-c1cnc(CC(C(F)(F)F)C(F)(F)F)cc1OC(F)F` [Example 22, 4-Chloro-5-(4-(difluoromethoxy)-6-(3,3,3-trifluoro-2-(trifluoromethyl)propyl)pyridin-3-yl)-1-ethyl-N-(((1s,4s)-1-hydroxy-4-(methylsulfonyl)cyclohexyl)methyl)-1H-pyrazole-3-carboxamide]: in assay [1], the Kd was found to be 0.0064 µM. Also, in assay [2], the IC50 amounted to 0.046 µM and the inhibition at 1 µM was found to be 115%.

Consider `CCn1nc(C(=O)NC[C@H]2CC[C@H](S(C)(=O)=O)CC2)c(C)c1-c1cnc(CC(C(F)(F)F)C(F)(F)F)cc1OC(F)F` [Example 23, 5-(4-(Difluoromethoxy)-6-(3,3,3-trifluoro-2-(trifluoromethyl)propyl)pyridin-3-yl)-1-ethyl-4-methyl-N-(((1r,4r)-4-(methylsulfonyl)cyclohexyl)methyl)-1H-pyrazole-3-carboxamide], for which the dissociation constant (Kd) in assay [1] was 0.0025 µM. In assay [2], the IC50 stood at 0.015 µM and the inhibition at 3 µM is 100%.

Take `CCn1nc(C(=O)NC[C@]2(O)CC[C@@H](S(C)(=O)=O)CC2)c(C)c1-c1cnc(CC(C(F)(F)F)C(F)(F)F)cc1OC(F)F` [Example 24, 5-(4-(Difluoromethoxy)-6-(3,3,3-trifluoro-2-(trifluoromethyl)propyl)pyridin-3-yl)-1-ethyl-N-(((1s,4s)-1-hydroxy-4-(methylsulfonyl)cyclohexyl)methyl)-4-methyl-1H-pyrazole-3-carboxamide]: the equilibrium dissociation constant (Kd) in assay [1] is 0.0089 µM. Further, in assay [2], the half-inhibitory concentration (IC50) worked out at 0.063 µM and the inhibition at 3 µM was found to be 113%.

With `CCn1nc(C(=O)NC[C@H]2CC[C@H](S(C)(=O)=O)CC2)c(Cl)c1-c1cnc(CC(C)(C)C(F)(F)F)cc1C(C)C` [Example 25], binding in assay [1] was characterised by a dissociation constant (Kd) of 0.015 µM. Further, in assay [2], the half-maximal inhibitory concentration (IC50) was determined as 0.34 µM and the inhibition at 3 µM is 94%.

The molecule `CCn1nc(C(=O)NC[C@H]2CC[C@H](S(C)(=O)=O)CC2)c(Cl)c1-c1cnc(CC(C)(C)C(F)(F)F)cc1C(F)F` [Example 26, 4-Chloro-5-(4-(difluoromethyl)-6-(3,3,3-trifluoro-2,2-dimethylpropyl)pyridin-3-yl)-1-ethyl-N-(((1r,4r)-4-(methylsulfonyl)cyclohexyl)methyl)-1H-pyrazole-3-carboxamide] had an equilibrium dissociation constant (Kd) in assay [1] of 0.017 µM. In assay [2], the IC50 is 0.014 µM and the inhibition at 3 µM stood at 88%.

Consider `CCn1nc(C(=O)NC[C@]2(O)CC[C@@H](S(C)(=O)=O)CC2)c(Cl)c1-c1cnc(CC(C)(C)C(F)(F)F)cc1C(F)F` [Example 27, 4-Chloro-5-(4-(difluoromethyl)-6-(3,3,3-trifluoro-2,2-dimethylpropyl)pyridin-3-yl)-1-ethyl-N-(((1s,4s)-1-hydroxy-4-(methylsulfonyl)cyclohexyl)methyl)-1H-pyrazole-3-carboxamide], for which binding in assay [1] was put at a Kd of 0.047 µM. Moreover, in assay [2], the half-inhibitory concentration (IC50) was determined as 0.13 µM and the inhibition at 3 µM came out at 20%.
